{"source": "patent US10385022B2", "about": "“3-amino-pyridines as GPBAR1 agonists” (HOFFMANN-LA ROCHE INC., priority 2011, dated 2019)", "data": [{"target": "human GPBAR1 receptor (Homo sapiens (Human), UniProt Q8TDU6)", "sequence (Q8TDU6 whole entry)": "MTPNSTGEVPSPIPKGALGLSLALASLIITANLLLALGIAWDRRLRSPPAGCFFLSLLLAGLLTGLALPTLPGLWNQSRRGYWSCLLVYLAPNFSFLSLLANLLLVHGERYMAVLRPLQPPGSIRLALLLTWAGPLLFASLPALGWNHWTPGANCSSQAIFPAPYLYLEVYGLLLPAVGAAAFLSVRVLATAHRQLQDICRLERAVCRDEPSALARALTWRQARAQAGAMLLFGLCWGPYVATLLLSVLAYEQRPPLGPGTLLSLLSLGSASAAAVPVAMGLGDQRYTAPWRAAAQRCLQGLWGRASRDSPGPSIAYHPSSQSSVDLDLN", "assay": "functional cAMP assay in CHO-dhfr(minus) cells expressing human GPBAR1 receptors", "type": "cell-based", "details": "CHO-dhfr(minus) cells expressing human GPBAR1, 30 min at 30° C.", "outline": "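Functional cAMP responses in a human GPBAR1-transfected CHO-dhfr- clone, picked using lithocholic acid as agonist, gave the EC50 values. Parallel testing in untransfected CHO cells served as a specificity control.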", "units": {"EC50": "nM"}, "values": [{"smiles": "COc1ncccc1-c1ccncc1N(CC(N)=O)C(=O)c1cc(C(F)(F)F)nc(C(F)(F)F)c1", "note": "[Example 183, N-(2-Amino-2-oxoethyl)-N-(2-methoxy-3,4′-bipyridin-3′-yl)-2,6-bis(trifluoromethyl)-isonicotinamide]", "EC50": 206}, {"smiles": "Cc1ccccc1-c1ccncc1N(C)C(=O)c1cc(Cl)nc(Cl)c1", "note": "[Example 120, 2,6-Dichloro-N-methyl-N-(4-o-tolyl-pyridin-3-yl)-isonicotinamide]", "EC50": 170}, {"smiles": "COC(=O)CN(C(=O)c1cc(C(F)(F)F)cc(S(C)(=O)=O)c1)c1cnccc1-c1ccccc1F", "note": "[Example 213, [[4-(2-Fluoro-phenyl)-pyridin-3-yl]-(3-methanesulfonyl-5-trifluoromethyl-benzoyl)-amino]-acetic acid methyl ester]", "EC50": 253}, {"smiles": "COc1cc(F)c(F)cc1-c1ccncc1N(C)C(=O)c1cc(C(F)(F)F)cc(S(C)(=O)=O)c1", "note": "[Example 137, N-[4-(4,5-Difluoro-2-methoxy-phenyl)-pyridin-3-yl]-3-methanesulfonyl-N-methyl-5-trifluoromethyl-benzamide]", "EC50": 166}, {"smiles": "CN(C(=O)c1cc(C(F)(F)F)cc(C(F)(F)F)c1)c1cnccc1-c1ccccc1C(F)(F)F", "note": "[Example 28, N-Methyl-3,5-bis-trifluoromethyl-N-[4-(2-trifluoromethyl-phenyl)-pyridin-3-yl]-benzamide]", "EC50": 863}, {"smiles": "O=C(c1cc(C(F)(F)F)cc(C(F)(F)F)c1)N(CCF)c1cnccc1-c1ccccc1Cl", "note": "[Example 110, N-[4-(2-Chloro-phenyl)-pyridin-3-yl]-N-(2-fluoro-ethyl)-3,5-bis-trifluoromethyl-benzamide]", "EC50": 152}, {"smiles": "Cc1ccccc1-c1cc(-c2ccc[nH]2)ncc1N(C)C(=O)c1cc(C(F)(F)F)cc(C(F)(F)F)c1", "note": "[Example 113, N-Methyl-N-[6-(1H-pyrrol-2-yl)-4-o-tolyl-pyridin-3-yl]-3,5-bis-trifluoromethyl-benzamide]", "EC50": 2010}, {"smiles": "COc1cc(-c2ccncc2N(C)C(=O)c2cc(C(F)(F)F)cc(C(F)(F)F)c2)c(OC)nn1", "note": "[Example 54, N-[4-(3,6-Dimethoxy-pyridazin-4-yl)-pyridin-3-yl]-N-methyl-3,5-bis-trifluoromethyl-benzamide]", "EC50": 1970}, {"smiles": "COc1c(F)cccc1-c1ccncc1N(C)C(=O)c1cc(C(F)(F)F)cc(C(F)(F)F)c1", "note": "[Example 41, N-[4-(3-Fluoro-2-methoxy-phenyl)-pyridin-3-yl]-N-methyl-3,5-bis-trifluoromethyl-benzamide]", "EC50": 90}, {"smiles": "CN(C(=O)c1cc(C(F)(F)F)cc(C(F)(F)F)c1)c1cnccc1-c1cc(F)ccc1F", "note": "[Example 61, N-[4-(2,5-Difluoro-phenyl)-pyridin-3-yl]-N-methyl-3,5-bis-trifluoromethyl-benzamide]", "EC50": 72}, {"smiles": "CS(=O)(=O)c1cc(C(=O)N(CC(F)(F)F)c2cnccc2-c2ccccc2Cl)cc(C(F)(F)F)c1", "note": "[Example 287, N-[4-(2-Chloro-phenyl)-pyridin-3-yl]-3-methanesulfonyl-N-(2,2,2-trifluoro-ethyl)-5-trifluoromethyl-benzamide]", "EC50": 539}, {"smiles": "COc1cc(F)ccc1-c1ccncc1N(CC(F)(F)F)C(=O)c1cc(F)cc(C(F)(F)F)c1", "note": "[Example 134, 3-Fluoro-N-[4-(4-fluoro-2-methoxy-phenyl)-pyridin-3-yl]-N-(2,2,2-trifluoro-ethyl)-5-trifluoromethyl-benzamide]", "EC50": 912}, {"smiles": "CNc1cc(-c2ccccc2C)c(N(C)C(=O)c2cc(C(F)(F)F)cc(C(F)(F)F)c2)cn1", "note": "[Example 15, N-Methyl-N-(6-methylamino-4-o-tolyl-pyridin-3-yl)-3,5-bis-trifluoromethyl-benzamide]", "EC50": 323}, {"smiles": "CN(C(=O)c1cc(C(F)(F)F)cc(S(C)(=O)=O)c1)c1cnccc1-c1ccccc1Cl", "note": "[Example 278, N-[4-(2-Chloro-phenyl)-pyridin-3-yl]-3-methanesulfonyl-N-methyl-5-trifluoromethyl-benzamide]", "EC50": 107}, {"smiles": "COc1cc(C(=O)N(C)c2cnccc2-c2ccc(F)cc2OC)cc(C(F)(F)F)n1", "note": "[Example 206, N-[4-(4-Fluoro-2-methoxy-phenyl)-pyridin-3-yl]-2-methoxy-N-methyl-6-trifluoromethyl-isonicotinamide]", "EC50": 23}, {"smiles": "Cc1ccccc1-c1ccncc1N(CC#N)C(=O)c1cc(C(F)(F)F)cc(C(F)(F)F)c1", "note": "[Example 161, N-Cyanomethyl-N-(4-o-tolyl-pyridin-3-yl)-3,5-bis-trifluoromethyl-benzamide]", "EC50": 29}, {"smiles": "COc1cc(F)ccc1-c1ccncc1N(CC(F)F)C(=O)c1cc(C(F)(F)F)nc(C(F)(F)F)c1", "note": "[Example 153, N-(2,2-Difluoro-ethyl)-N-[4-(4-fluoro-2-methoxy-phenyl)-pyridin-3-yl]-2,6-bis-trifluoromethyl-isonicotinamide]", "EC50": 19}, {"smiles": "CN(C(=O)c1cc(C(F)(F)F)cc(C(F)(F)F)c1)c1cnccc1-c1cccc(Cl)c1F", "note": "[Example 111, N-[4-(3-Chloro-2-fluoro-phenyl)-pyridin-3-yl]-N-methyl-3,5-bis-trifluoromethyl-benzamide]", "EC50": 256}, {"smiles": "Cc1ccccc1-c1cc(N)ncc1N(C)C(=O)c1cc(C(F)(F)F)cc(C(F)(F)F)c1", "note": "[Example 16]", "EC50": 184}, {"smiles": "COc1cc(F)c(F)cc1-c1ccncc1N(CC(F)F)C(=O)c1cc(C(F)(F)F)nc(C(F)(F)F)c1", "note": "[Example 154, N-(2,2-Difluoro-ethyl)-N-[4-(4,5-difluoro-2-methoxy-phenyl)-pyridin-3-yl]-2,6-bis-trifluoromethyl-isonicotinamide]", "EC50": 39}, {"smiles": "Cc1cc(-c2ccccc2OCC2COC2)c(N(C)C(=O)c2cc(C(F)(F)F)cc(S(C)(=O)=O)c2)cn1", "note": "[Example 321, 3-Methanesulfonyl-N-methyl-N-{6-methyl-4-[2-(oxetan-3-ylmethoxy)-phenyl]-pyridin-3-yl}-5-trifluoromethyl-benzamide]", "EC50": 1880}, {"smiles": "CN(C(=O)c1cc(C(F)(F)F)cc(C(F)(F)F)c1)c1cnccc1-c1ccncc1F", "note": "[Example 70, N-(3′-Fluoro-[4,4′]bipyridinyl-3-yl)-N-methyl-3,5-bis-trifluoromethyl-benzamide]", "EC50": 485}, {"smiles": "Cc1nn(C)c(C)c1-c1ccncc1N(C)C(=O)c1cc(C(F)(F)F)cc(C(F)(F)F)c1", "note": "[Example 208, N-Methyl-3,5-bis-trifluoromethyl-N-[4-(1,3,5-trimethyl-1H-pyrazol-4-yl)-pyridin-3-yl]-benzamide]", "EC50": 2960}, {"smiles": "COc1cc(F)ccc1-c1ccncc1N(CCS(C)(=O)=O)C(=O)c1cc(C(F)(F)F)cc(S(C)(=O)=O)c1", "note": "[Example 306, N-[4-(4-Fluoro-2-methoxy-phenyl)-pyridin-3-yl]-3-methanesulfonyl-N-(2-methanesulfonyl-ethyl)-5-trifluoromethyl-benzamide]", "EC50": 190}, {"smiles": "COc1cc(F)ccc1-c1ccncc1N(C)C(=O)c1cc(C(F)(F)F)cc(S(C)(=O)=O)c1", "note": "[Example 138, N-[4-(4-Fluoro-2-methoxy-phenyl)-pyridin-3-yl]-3-methanesulfonyl-N-methyl-5-trifluoromethyl-benzamide]", "EC50": 42}, {"smiles": "COc1cc(F)ccc1-c1ccncc1N(Cc1ncc(C)o1)C(=O)c1cc(C(F)(F)F)cc(S(C)(=O)=O)c1", "note": "[Example 283, N-[4-(4-Fluoro-2-methoxy-phenyl)-pyridin-3-yl]-3-methanesulfonyl-N-(5-methyl-oxazol-2-ylmethyl)-5-trifluoromethyl-benzamide]", "EC50": 2200}, {"smiles": "COc1cc(F)ccc1-c1ccncc1N(C)C(=O)c1cc(C(F)(F)F)cc(S(=O)(=O)N(C)C)c1", "note": "[Example 143, 3-Dimethylsulfamoyl-N-[4-(4-fluoro-2-methoxy-phenyl)-pyridin-3-yl]-N-methyl-5-trifluoromethyl-benzamide]", "EC50": 12}, {"smiles": "COc1cnccc1-c1ccncc1N(C)C(=O)c1cc(C(F)(F)F)cc(C(F)(F)F)c1", "note": "[Example 69, N-(3′-Methoxy-[4,4′]bipyridinyl-3-yl)-N-methyl-3,5-bis-trifluoromethyl-benzamide]", "EC50": 377}, {"smiles": "Cc1cc(C)cc(C(=O)N(C)c2cnccc2-c2ccccc2C)c1", "note": "[Example 96, 3,5,N-Trimethyl-N-(4-o-tolyl-pyridin-3-yl)-benzamide]", "EC50": 127}, {"smiles": "Cc1ccccc1-c1ccncc1N(C(=O)c1cc(C(F)(F)F)cc(C(F)(F)F)c1)C1COC1", "note": "[Example 200, N-Oxetan-3-yl-N-(4-o-tolyl-pyridin-3-yl)-3,5-bis-trifluoromethyl-benzamide]", "EC50": 1200}, {"smiles": "COc1nc(C)ccc1-c1ccncc1N(C)C(=O)c1cc(C(F)(F)F)cc(C(F)(F)F)c1", "note": "[Example 47, N-(2-Methoxy-6-methyl-[3,4′]bipyridinyl-3′-yl)-N-methyl-3,5-bis-trifluoromethyl-benzamide]", "EC50": 68}, {"smiles": "COc1cccc(F)c1-c1ccncc1N(CC(N)=O)C(=O)c1cc(C(F)(F)F)nc(C(F)(F)F)c1", "note": "[Example 199, N-Carbamoylmethyl-N-[4-(2-fluoro-6-methoxy-phenyl)-pyridin-3-yl]-2,6-bis-trifluoromethyl-isonicotinamide]", "EC50": 33}, {"smiles": "COc1cc(F)ccc1-c1ccncc1N(C[C@@H]1CCCOC1)C(=O)c1cc(C(F)(F)F)cc(S(C)(=O)=O)c1", "note": "[Example 299, (+)-N-[4-(4-Fluoro-2-methoxy-phenyl)-pyridin-3-yl]-3-methanesulfonyl-N-[1-(tetrahydro-pyran-3-yl)methyl]-5-trifluoromethyl-benzamide]", "EC50": 952}, {"smiles": "CN(C(=O)c1cc(C(F)(F)F)cc(C(F)(F)F)c1)c1cnccc1-c1ccccc1CC#N", "note": "[Example 175, N-[4-(2-Cyanomethyl-phenyl)-pyridin-3-yl]-N-methyl-3,5-bis-trifluoromethyl-benzamide]", "EC50": 571}, {"smiles": "Cc1cc(F)ccc1-c1ccncc1N(C)C(=O)c1cc(Cl)cc(Cl)c1", "note": "[Example 24, 3,5-Dichloro-N-[4-(4-fluoro-2-methyl-phenyl)-pyridin-3-yl]-N-methyl-benzamide]", "EC50": 146}, {"smiles": "COc1cc(F)ccc1-c1ccncc1N(C)C(=O)c1cc(SCCNS(N)(=O)=O)cc(C(F)(F)F)c1", "note": "[Example 261, N-[4-(4-fluoro-2-methoxyphenyl)pyridin-3-yl]-N-methyl-3-{[2-(sulfamoylamino)ethyl]-sulfanyl}-5-(trifluoromethyl)benzamide]", "EC50": 190}]}]}
